Test results: patent publication US7662388B2, “Endogenous peptide and active subfragments thereof” (Innoventus Project AB, priority 2003, dated 2010)

Columns and labels:
[1] = system: Primary bovine adrenal cortex capillary endothelial (BCE) cells; assay: chemotaxis assay of synthetic peptides (Table 2); assay type: cell-based; conditions: for Inhibition of chemotaxis: 100 ng/ml peptide, FGF-2 10 ng/ml, BCE cells, 5 h; for inhibition of chemotaxis, stated in words: chemotaxis assay of table 2
Protocol: Synthetic peptides were produced by Multiple Peptide Systems, San Diego Calif., USA, and dissolved in 1 mM ZnCl2/0.5xPBS at a stock concentration of 1 mg/ml. The sequences of the peptides were as follows:
A migration assay was performed in a modified Boyden chamber as described earlier (Auerbach et al., 1991) using micropore polycarbonate filters (8 μm thick, 8 μm pore) coated with type-1 collagen solution at 100 μg/ml (Vitrogen 100, Collagen Corp). Primary bovine adrenal cortex capillary endothelial (BCE) cells were trypsinized and resuspended at a concentration of 7.5×10^5 cells/ml in Dulbecco's modified essential medium (Invitrogen) containing 0.25% BSA and Trasylol at 1000 KIE. The cell suspension was placed in the upper chamber. In the lower chamber below the filter was placed medium containing 0.25% BSA and when indicated, 10 ng/ml fibroblast growth factor (FGF-2; Peprotech). Recombinant HRGP produced in 293 cells, alternatively, synthetic peptides, all at a final concentration of 100 ng/ml (or as indicated), was placed in both chambers either alone or in combination with FGF-2. After 5 h at 37° C., the medium was removed and cells sticking to the filter were fixed in pure methanol and stained with Giemsa stain. The number of cells on the lower side of the filter was counted using an image analysis software (Easy Image Analysis) from TeknoOptik, Sweden. All samples were analyzed in series of at least six parallel wells for each treatment.

T241 fibrosarcoma cells = assay: fibrosarcoma tumour growth in mice (HRGP); assay type: in vivo; conditions: 14 days
Protocol: Animal work was carried out at the local animal facility and was approved by the Uppsala University board of animal experimentation and thus performed according to the UKCCCR guidelines for the welfare of animals in experimental neoplasia (Workman et al (1988)). The mice were anesthetized with isoflurane (Forene; Abbott) during all manipulations. Female, 5 week old, C57BL6/1 mice (Mollegard/Bomhultgard, Denmark) were injected with 0.5×10^6 T241 fibrosarcoma cells subcutaneously (s.c.) into the left flank. Animals carrying palpable tumours were randomized (n=7-10 animals/treatment group) and received treatment with vehicle (PBS), 4 mg/kg/day of pHRGP or 5 mg/kg/day of human IgG or His-HRGP, given as daily subcutaneous injections in the right flank. The tumours were measured with a caliper once a day, in a blind procedure, and volumes were calculated by the formula […]. When the tumours reached the upper limit of 2 cm^3, the mice were sacrificed. Three animals in each group were perfused with 4% paraformaldehyde in PBS pH 7.4. Tumours were embedded in paraffin according to standard histological procedures and sectioned at […] thickness.
C57/bl6 mice were inoculated subcutaneously with T241 fibrosarcoma cells on their left flank and when the tumours were palpable (after 4-6 days), a daily treatment was initiated with HRGP or control (PBS; FIG. 2A, or human IgG; FIG. 2B). Endostatin was included in one study for comparison (FIG. 2B). The treatment was given as subcutaneous injections in the right flank until the size of the control tumours reached the upper limit of […] (11 days; FIG. 2A, 14 days; FIG. 2B). Injections with both pHRGP (4 mg/kg/day) and His-HRGP (5 mg/kg/day) led to a drastic reduction in tumour growth and at the time of sacrifice, the size of the tumours was reduced by 67% (FIG. 2A) and 61% (FIG. 2B) respectively, compared to control-treated animals. Endostatin treatment (25 mg/kg/day) lacked significant inhibitory effect on tumour growth in this model (32% decrease).

endothelial cells = assay: chemotaxis of endothelial cells towards FGF-2, truncated HRGP proteins; assay type: cell-based; conditions: recombinant truncated forms of HRGP
Protocol: (§1) A migration assay was performed in a modified Boyden chamber as described earlier (Auerbach et al., 1991) using micropore polycarbonate filters (8 μm thick, 8 μm pore) coated with type-1 collagen solution at 100 μg/ml (Vitrogen 100, Collagen Corp). BCE, PAE/FGFR-1 or NIH 3T3 cells were preincubated or not with HRGP (100 ng/ml) for 30 min, trypsinised and resuspended at a concentration of 7.5×10^5 cells/ml in Dulbecco's modified essential medium (Invitrogen) containing 0.25% BSA and Trasylol at 1000 KIE. FGF-2 and VEGF-A was used at 5 ng/ml, HRGP and the protein C inhibitor (PCI) at 100 ng/ml and BSA at 0.25%. After 5 h at 37° C., migrated cells were stained with Giemsa and counted using an image analysis software (Easy Image Analysis) from Tekno Optik AB, Sweden. All samples were analysed in at least six parallel wells for each treatment.
To determine which part of HRGP was responsible for the anti-angiogenic effect, recombinant truncated forms of the protein were produced (FIG. 5A). Truncated versions containing the C-terminal part of HRGP, but lacking an intact N-terminus, were not possible to produce, maybe due to instability.

primary BCE cells = assay: chemotaxis (migration) assay in modified Boyden chamber, BCE cells; assay type: cell-based, bovine; conditions: 100 ng/ml protein, FGF-2 5 ng/ml, 5 h
Protocol: The porcine aortic endothelial (PAE) cell line overexpressing FGF receptor-1 (FGFR-1) (Wennström et al 1992) was cultured in Ham's F12/10% fetal bovine serum (FCS) and NIH 3T3 murine fibroblasts were cultured in Dulbecco's modified medium (DMEM)/10% newborn calf serum (NCS). F12, DMEM and serum were bought from Life Technologies. Primary bovine adrenal cortex capillary endothelial (BCE) cells were cultured on gelatin-coated dishes in DMEM/10% NCS and 2 ng/ml FGF-2 (Boehringer Mannheim). For chemotaxis assays, both PAE and NIH 3T3 cells were serum-starved over night in 0.1% BSA and BCE cells in 0.5% NCS. Human embryonic kidney (HEK) 293-EBNA cells were cultured in DMEM/10% FCS. Approximately every second month they were given 0.25 mg/ml G418 (Calbiochem) to ensure positive selection of the EBNA-1 expressing cells.
as §1

For Ac-AHHPHEHDTH-NH2 [Pep 13A], the Inhibition of chemotaxis [1] was “+”.

With DLHPHKHHSHEQHPHG [Pep 8] the Inhibition of chemotaxis [1] was “− (as compared to Pep 8 and Pep 11A)” and the “inhibition of chemotaxis, stated in words” value [1] was “not to be effective”.

For Ac-EHDTH-NH2 [Pep 15A], the Inhibition of chemotaxis [1] was “+”.

In the case of KHHSHEQHPHGHHPHAHHPHEHDTHG [Pep 9A], the Inhibition of chemotaxis [1] is reported as “+”.

In the case of Ac-AHHPHEHDTHRQHPH-NH2 [Pep 12A], the Inhibition of chemotaxis [1] is reported as “+”.

AHHPHEHDTHRQHPHG [Pep 10] was tested, and the Inhibition of chemotaxis [1] was “+”.

In the case of DLHPHEQHPHEHDTHG [Pep 11A], the Inhibition of chemotaxis [1] is reported as “− (as compared to Pep 8 and Pep 11A)” and the “inhibition of chemotaxis, stated in words” value [1] is reported as “not to be effective”.

B1: Endostatin: anti-angiogenic factor included in one tumour study for comparison (protein, UniProt P39060 1572-1754, looked up)
Endostatin: HSHRDFQPVLHLVALNSPLSGGMRGIRGADFQCFQQARAVGLAGTFRAFLSSRLQDLYSIVRRADRAAVPIVNLKDELLFPSWEALFSGSEGPLKPGARIFSFDGKDVLRHPTWPQKSVWHGSDPNGRRLTESYCETWRTEAPSATGQASSLLGGRLLGQSAASCHHAYIVLCIENSFMTASK
modifications: Endostatin
notes: anti-angiogenic factor included in one tumour study for comparison
In the case of B1, the “decrease of tumour growth” value (T241 fibrosarcoma cells; 25 mg/kg/day, comparison) is reported as 32%.

B2: His 5: recombinant His/Pro-rich domain (central region) of human HRGP (protein, listed as Homo sapiens)
chain: HLGHPFHWGGHERSSTTKPPFKPHGSRDHHHPHKPHEHGPPPPPDERDHSHGPPLPQGPPPLLPMSCSSCQHATFGTNGAQRHSHNNNSSDLHPHKHHSHEQHPHGHHPHAHHPHEHDTHRQHPHGHHPHGHHPHGHHPHGHHPHGHHPHC
In the case of B2, the “inhibition of chemotaxis of endothelial cells towards FGF-2” value (endothelial cells) is reported as “inhibited chemotaxis”, the “inhibition of chemotaxis of endothelial cells towards FGF-2” value (endothelial cells; listed as central region (His/Pro-rich domain) of human HRGP) is reported as “inhibited chemotaxis as potently as the mature protein” and the “inhibition of chemotaxis of endothelial cells towards FGF-2” value (endothelial cells; listed as central region of human HRGP) is reported as “inhibit chemotaxis”.

B3: PCI: plasma protein of approximately the same mass as HRGP, specificity control (protein, UniProt P05154 26-406, looked up)
Plasma serine protease …: EMKKRVEDLHVGATVAPSSRRDFTFDLYRALASAAPSQSIFFSPVSISMSLAMLSLGAGSSTKMQILEGLGLNLQKSSEKELHRGFQQLLQELNQPRDGFQLSLGNALFTDLVVDLQDTFVSAMKTLYLADTFPTNFRDSAGAMKQINDYVAKQTKGKIVDLLKNLDSNAVVIMVNYIFFKAKWETSFNHKGTQEQDFYVTSETVVRVPMMSREDQYHYLLDRNLSCRVVGVPYQGNATALFILPSEGKMQQVENGLSEKTLRKWLKMFKKRQLELYLPKFSIEGSYQLEKVLPSLGISNVFTSHADLSGISNHSNIQVSEMVHKAVVEVDESGTRAAAATGTIFTFRSARLNSQRLVFNRPFLMFIVDNNILFLGKVNRP
For B3, the “FGF-2-induced chemotaxis of BCE cells” value (primary BCE cells) was “no effect”.

B4: His 4: recombinant truncated version of HRGP that covers the complete central region (protein, listed as Homo sapiens)
chain: VSPTDCSAVEPEAEKALDLINKRRRDGYLFQLLRIADAHLDRVENTTVYYLVLDVQESDCSVLSRKYWNDCEPPDSRRPSEIVIGQCKVIATRHSHESQDLRVIDFNCTTSSVSSALANTKDSPVLIDFFEDTERYRKQANKALEKYKEENDDFASFRVDRIERVARVRGGEGTGYFVDFSVRNCPRHHFPRHPNVFGFCRADLFYDVEALDLESPKNLVINCEVFDPQEHENINGVPPHLGHPFHWGGHERSSTTKPPFKPHGSRDHHHPHKPHEHGPPPPPDERDHSHGPPLPQGPPPLLPMSCSSCQHATFGTNGAQRHSHNNNSSDLHPHKHHSHEQHPHGHHPHAHHPHEHDTHRQHPHGHHPHGHHPHGHHPHGHHPHGHHPHC
In the case of B4, the “inhibition of chemotaxis of endothelial cells towards FGF-2” value (endothelial cells) is reported as “did not inhibit endothelial cell chemotaxis” and the “inhibition of chemotaxis of endothelial cells towards FGF-2” value (endothelial cells; listed as His4) is reported as “failure of His4 to inhibit endothelial cell chemotaxis”.

B5: His-HRGP: recombinant full-length HRGP produced in HEK-293-EBNA cells with a His-tag (protein)
chain: VSPTDCSAVEPEAEKALDLINKRRRDGYLFQLLRIADAHLDRVENTTVYYLVLDVQESDCSVLSRKYWNDCEPPDSRRPSEIVIGQCKVIATRHSHESQDLRVIDFNCTTSSVSSALANTKDSPVLIDFFEDTERYRKQANKALEKYKEENDDFASFRVDRIERVARVRGGEGTGYFVDFSVRNCPRHHFPRHPNVFGFCRADLFYDVEALDLESPKNLVINCEVFDPQEHENINGVPPHLGHPFHWGGHERSSTTKPPFKPHGSRDHHHPHKPHEHGPPPPPDERDHSHGPPLPQGPPPLLPMSCSSCQHATFGTNGAQRHSHNNNSSDLHPHKHHSHEQHPHGHHPHAHHPHEHDTHRQHPHGHHPHGHHPHGHHPHGHHPHGHHPHCHDFQDYGPCDPPPHNQGHCCHGHGPPPGHLRRRGPGKGPRPFHCRQIGSVYRLPPLRKGEVLPLPEANFPSFPLPHHKHPLKPDNQPFPQSVSESCPGKFKSGFPQVSMFFTHTFPK
modifications: left off: small tags and cut ends
notes: recombinant full-length HRGP produced in HEK-293-EBNA cells with a His-tag
In the case of B5, the “reduction of tumour size compared to control-treated animals at sacrifice” value (T241 fibrosarcoma cells; 5 mg/kg/day s.c. daily, control human IgG) is reported as 61%.
